Results taken from the supplement of paper PMC4862054.

test system: CAL-148; assay: normalised response (% of control), CellTiter-Glo; higher = more viable cells (100 = DMSO, 0 = benzethonium chloride kill control); conditions: incubation time: 72 h
Procedure: (§1)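 DSRT, 72 h incubation, CellTox Green / CellTiter-Glo readout. Signal is normalised to DMSO and benzethonium chloride controls. Value is the normalised response at the highest dose.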

SMILES | normalised response [%]
COc1cc2c(Oc3ccc4[nH]c(C)cc4c3F)ncnc2cc1OCCCN1CCCC1 [Cediranib] (1000 nM) | 110
Nc1nc2[nH]cc(CCc3ccc(C(=O)N[C@@H](CCC(=O)O)C(=O)O)cc3)c2c(=O)[nH]1 [Pemetrexed] (10000 nM) | 88.5
C[C@H]1C[C@@H]2[C@H]([C@@H](O)C[C@@]3(C)[C@H]2CC[C@]3(O)C(=O)CO)[C@@]2(C)C=CC(=O)C=C12 [Methylprednisolone] (10000 nM) | 112
CNC(=O)c1cc(Oc2ccc(NC(=O)Nc3cc(C(C)(C)C)nn3-c3ccc4ncccc4c3)c(F)c2)ccn1 [Rebastinib] (1000 nM) | 118
CCN(CC)CCCC(C)Nc1c2ccc(Cl)cc2nc2ccc(OC)cc12 (configuration not stated) [Mepacrine] (50000 nM) | 91
Nc1nc(F)nc2c1ncn2[C@@H]1O[C@H](CO)[C@@H](O)[C@@H]1O [Fludarabine] (10000 nM) | 87.6
CCCS(=O)(=O)Nc1ccc(F)c(C(=O)c2c[nH]c3ncc(-c4ccc(Cl)cc4)cc23)c1F [Vemurafenib] (10000 nM) | 94.7
O=C(O)C1(C(=O)O)CCC1.[NH2-].[NH2-].[Pt+2] [Carboplatin] (10000 nM) | 103

test system: HDQ-P1; assay: as above; conditions: incubation time: 72 h
Procedure: as §1

SMILES | normalised response [%]
COc1cc2c(Oc3ccc4[nH]c(C)cc4c3F)ncnc2cc1OCCCN1CCCC1 [Cediranib] (1000 nM) | 80.8
Nc1nc2[nH]cc(CCc3ccc(C(=O)N[C@@H](CCC(=O)O)C(=O)O)cc3)c2c(=O)[nH]1 [Pemetrexed] (10000 nM) | 82.7
C[C@H]1C[C@@H]2[C@H]([C@@H](O)C[C@@]3(C)[C@H]2CC[C@]3(O)C(=O)CO)[C@@]2(C)C=CC(=O)C=C12 [Methylprednisolone] (10000 nM) | 89.9
CNC(=O)c1cc(Oc2ccc(NC(=O)Nc3cc(C(C)(C)C)nn3-c3ccc4ncccc4c3)c(F)c2)ccn1 [Rebastinib] (1000 nM) | 95.7
CCN(CC)CCCC(C)Nc1c2ccc(Cl)cc2nc2ccc(OC)cc12 (configuration not stated) [Mepacrine] (50000 nM) | 101
Nc1nc(F)nc2c1ncn2[C@@H]1O[C@H](CO)[C@@H](O)[C@@H]1O [Fludarabine] (10000 nM) | 96.3
CCCS(=O)(=O)Nc1ccc(F)c(C(=O)c2c[nH]c3ncc(-c4ccc(Cl)cc4)cc23)c1F [Vemurafenib] (10000 nM) | 70.7
O=C(O)C1(C(=O)O)CCC1.[NH2-].[NH2-].[Pt+2] [Carboplatin] (10000 nM) | 101

test system: DU-4475; assay: as above; conditions: incubation time: 72 h
Procedure: as §1

SMILES | normalised response [%]
COc1cc2c(Oc3ccc4[nH]c(C)cc4c3F)ncnc2cc1OCCCN1CCCC1 [Cediranib] (1000 nM) | 95.5
Nc1nc2[nH]cc(CCc3ccc(C(=O)N[C@@H](CCC(=O)O)C(=O)O)cc3)c2c(=O)[nH]1 [Pemetrexed] (10000 nM) | 93.7
C[C@H]1C[C@@H]2[C@H]([C@@H](O)C[C@@]3(C)[C@H]2CC[C@]3(O)C(=O)CO)[C@@]2(C)C=CC(=O)C=C12 [Methylprednisolone] (10000 nM) | 104
CNC(=O)c1cc(Oc2ccc(NC(=O)Nc3cc(C(C)(C)C)nn3-c3ccc4ncccc4c3)c(F)c2)ccn1 [Rebastinib] (1000 nM) | 96.7
CCN(CC)CCCC(C)Nc1c2ccc(Cl)cc2nc2ccc(OC)cc12 (configuration not stated) [Mepacrine] (50000 nM) | 92.2
Nc1nc(F)nc2c1ncn2[C@@H]1O[C@H](CO)[C@@H](O)[C@@H]1O [Fludarabine] (10000 nM) | 106
CCCS(=O)(=O)Nc1ccc(F)c(C(=O)c2c[nH]c3ncc(-c4ccc(Cl)cc4)cc23)c1F [Vemurafenib] (10000 nM) | 2.81
O=C(O)C1(C(=O)O)CCC1.[NH2-].[NH2-].[Pt+2] [Carboplatin] (10000 nM) | 96.9

test system: MDA-MB-231; assay: as above; conditions: incubation time: 72 h
Procedure: as §1

SMILES | normalised response [%]
COc1cc2c(Oc3ccc4[nH]c(C)cc4c3F)ncnc2cc1OCCCN1CCCC1 [Cediranib] (1000 nM) | 105
Nc1nc2[nH]cc(CCc3ccc(C(=O)N[C@@H](CCC(=O)O)C(=O)O)cc3)c2c(=O)[nH]1 [Pemetrexed] (10000 nM) | 48
C[C@H]1C[C@@H]2[C@H]([C@@H](O)C[C@@]3(C)[C@H]2CC[C@]3(O)C(=O)CO)[C@@]2(C)C=CC(=O)C=C12 [Methylprednisolone] (10000 nM) | 146
CNC(=O)c1cc(Oc2ccc(NC(=O)Nc3cc(C(C)(C)C)nn3-c3ccc4ncccc4c3)c(F)c2)ccn1 [Rebastinib] (1000 nM) | 77.8
CCN(CC)CCCC(C)Nc1c2ccc(Cl)cc2nc2ccc(OC)cc12 (configuration not stated) [Mepacrine] (50000 nM) | 94.8
Nc1nc(F)nc2c1ncn2[C@@H]1O[C@H](CO)[C@@H](O)[C@@H]1O [Fludarabine] (10000 nM) | 95.2
CCCS(=O)(=O)Nc1ccc(F)c(C(=O)c2c[nH]c3ncc(-c4ccc(Cl)cc4)cc23)c1F [Vemurafenib] (10000 nM) | 86.3
O=C(O)C1(C(=O)O)CCC1.[NH2-].[NH2-].[Pt+2] [Carboplatin] (10000 nM) | 96.9

test system: CAL-51; assay: as above; conditions: incubation time: 72 h
Procedure: as §1

SMILES | normalised response [%]
COc1cc2c(Oc3ccc4[nH]c(C)cc4c3F)ncnc2cc1OCCCN1CCCC1 [Cediranib] (1000 nM) | 128
Nc1nc2[nH]cc(CCc3ccc(C(=O)N[C@@H](CCC(=O)O)C(=O)O)cc3)c2c(=O)[nH]1 [Pemetrexed] (10000 nM) | 68.3
C[C@H]1C[C@@H]2[C@H]([C@@H](O)C[C@@]3(C)[C@H]2CC[C@]3(O)C(=O)CO)[C@@]2(C)C=CC(=O)C=C12 [Methylprednisolone] (10000 nM) | 130
CNC(=O)c1cc(Oc2ccc(NC(=O)Nc3cc(C(C)(C)C)nn3-c3ccc4ncccc4c3)c(F)c2)ccn1 [Rebastinib] (1000 nM) | 74.1
CCN(CC)CCCC(C)Nc1c2ccc(Cl)cc2nc2ccc(OC)cc12 (configuration not stated) [Mepacrine] (50000 nM) | 87.4
Nc1nc(F)nc2c1ncn2[C@@H]1O[C@H](CO)[C@@H](O)[C@@H]1O [Fludarabine] (10000 nM) | 125
CCCS(=O)(=O)Nc1ccc(F)c(C(=O)c2c[nH]c3ncc(-c4ccc(Cl)cc4)cc23)c1F [Vemurafenib] (10000 nM) | 78.4
O=C(O)C1(C(=O)O)CCC1.[NH2-].[NH2-].[Pt+2] [Carboplatin] (10000 nM) | 114

test system: MDA-MB-453; assay: as above; conditions: incubation time: 72 h
Procedure: as §1

SMILES | normalised response [%]
COc1cc2c(Oc3ccc4[nH]c(C)cc4c3F)ncnc2cc1OCCCN1CCCC1 [Cediranib] (1000 nM) | 103
Nc1nc2[nH]cc(CCc3ccc(C(=O)N[C@@H](CCC(=O)O)C(=O)O)cc3)c2c(=O)[nH]1 [Pemetrexed] (10000 nM) | 97.5
C[C@H]1C[C@@H]2[C@H]([C@@H](O)C[C@@]3(C)[C@H]2CC[C@]3(O)C(=O)CO)[C@@]2(C)C=CC(=O)C=C12 [Methylprednisolone] (10000 nM) | 96.7
CNC(=O)c1cc(Oc2ccc(NC(=O)Nc3cc(C(C)(C)C)nn3-c3ccc4ncccc4c3)c(F)c2)ccn1 [Rebastinib] (1000 nM) | 111
CCN(CC)CCCC(C)Nc1c2ccc(Cl)cc2nc2ccc(OC)cc12 (configuration not stated) [Mepacrine] (50000 nM) | 98.8
Nc1nc(F)nc2c1ncn2[C@@H]1O[C@H](CO)[C@@H](O)[C@@H]1O [Fludarabine] (10000 nM) | 112
CCCS(=O)(=O)Nc1ccc(F)c(C(=O)c2c[nH]c3ncc(-c4ccc(Cl)cc4)cc23)c1F [Vemurafenib] (10000 nM) | 89.3
O=C(O)C1(C(=O)O)CCC1.[NH2-].[NH2-].[Pt+2] [Carboplatin] (10000 nM) | 95.8

test system: MDA-MB-436; assay: as above; conditions: incubation time: 72 h
Procedure: as §1

SMILES | normalised response [%]
COc1cc2c(Oc3ccc4[nH]c(C)cc4c3F)ncnc2cc1OCCCN1CCCC1 [Cediranib] (1000 nM) | 100
Nc1nc2[nH]cc(CCc3ccc(C(=O)N[C@@H](CCC(=O)O)C(=O)O)cc3)c2c(=O)[nH]1 [Pemetrexed] (10000 nM) | 78.1
C[C@H]1C[C@@H]2[C@H]([C@@H](O)C[C@@]3(C)[C@H]2CC[C@]3(O)C(=O)CO)[C@@]2(C)C=CC(=O)C=C12 [Methylprednisolone] (10000 nM) | 102
CNC(=O)c1cc(Oc2ccc(NC(=O)Nc3cc(C(C)(C)C)nn3-c3ccc4ncccc4c3)c(F)c2)ccn1 [Rebastinib] (1000 nM) | 112
CCN(CC)CCCC(C)Nc1c2ccc(Cl)cc2nc2ccc(OC)cc12 (configuration not stated) [Mepacrine] (50000 nM) | 97
Nc1nc(F)nc2c1ncn2[C@@H]1O[C@H](CO)[C@@H](O)[C@@H]1O [Fludarabine] (10000 nM) | 53.2
CCCS(=O)(=O)Nc1ccc(F)c(C(=O)c2c[nH]c3ncc(-c4ccc(Cl)cc4)cc23)c1F [Vemurafenib] (10000 nM) | 66.8
O=C(O)C1(C(=O)O)CCC1.[NH2-].[NH2-].[Pt+2] [Carboplatin] (10000 nM) | 92.5

test system: HCC1937; assay: as above; conditions: incubation time: 72 h
Procedure: as §1

SMILES | normalised response [%]
COc1cc2c(Oc3ccc4[nH]c(C)cc4c3F)ncnc2cc1OCCCN1CCCC1 [Cediranib] (1000 nM) | 91.7
Nc1nc2[nH]cc(CCc3ccc(C(=O)N[C@@H](CCC(=O)O)C(=O)O)cc3)c2c(=O)[nH]1 [Pemetrexed] (10000 nM) | 65.9
C[C@H]1C[C@@H]2[C@H]([C@@H](O)C[C@@]3(C)[C@H]2CC[C@]3(O)C(=O)CO)[C@@]2(C)C=CC(=O)C=C12 [Methylprednisolone] (10000 nM) | 97.5
CNC(=O)c1cc(Oc2ccc(NC(=O)Nc3cc(C(C)(C)C)nn3-c3ccc4ncccc4c3)c(F)c2)ccn1 [Rebastinib] (1000 nM) | 99.8
CCN(CC)CCCC(C)Nc1c2ccc(Cl)cc2nc2ccc(OC)cc12 (configuration not stated) [Mepacrine] (50000 nM) | 100
Nc1nc(F)nc2c1ncn2[C@@H]1O[C@H](CO)[C@@H](O)[C@@H]1O [Fludarabine] (10000 nM) | 86.3
CCCS(=O)(=O)Nc1ccc(F)c(C(=O)c2c[nH]c3ncc(-c4ccc(Cl)cc4)cc23)c1F [Vemurafenib] (10000 nM) | 84
O=C(O)C1(C(=O)O)CCC1.[NH2-].[NH2-].[Pt+2] [Carboplatin] (10000 nM) | 89.2

test system: CAL-85-1; assay: as above; conditions: incubation time: 72 h
Procedure: as §1

SMILES | normalised response [%]
COc1cc2c(Oc3ccc4[nH]c(C)cc4c3F)ncnc2cc1OCCCN1CCCC1 [Cediranib] (1000 nM) | 100
Nc1nc2[nH]cc(CCc3ccc(C(=O)N[C@@H](CCC(=O)O)C(=O)O)cc3)c2c(=O)[nH]1 [Pemetrexed] (10000 nM) | 54.2
C[C@H]1C[C@@H]2[C@H]([C@@H](O)C[C@@]3(C)[C@H]2CC[C@]3(O)C(=O)CO)[C@@]2(C)C=CC(=O)C=C12 [Methylprednisolone] (10000 nM) | 112
CNC(=O)c1cc(Oc2ccc(NC(=O)Nc3cc(C(C)(C)C)nn3-c3ccc4ncccc4c3)c(F)c2)ccn1 [Rebastinib] (1000 nM) | 87.5
CCN(CC)CCCC(C)Nc1c2ccc(Cl)cc2nc2ccc(OC)cc12 (configuration not stated) [Mepacrine] (50000 nM) | 103
Nc1nc(F)nc2c1ncn2[C@@H]1O[C@H](CO)[C@@H](O)[C@@H]1O [Fludarabine] (10000 nM) | 83.9
CCCS(=O)(=O)Nc1ccc(F)c(C(=O)c2c[nH]c3ncc(-c4ccc(Cl)cc4)cc23)c1F [Vemurafenib] (10000 nM) | 85.1
O=C(O)C1(C(=O)O)CCC1.[NH2-].[NH2-].[Pt+2] [Carboplatin] (10000 nM) | 96.4
